Reference: the Deep4Chem optical property database
Each block holds one compound with its values, some of them ahead of it.

Test: solvent given as SMILES

absorption maximum (in ClCCl): 701 nm
Compound: CCN(CC)c1ccc2c(-c3ccccc3C(=O)O)c3c([o+]c2c1)/C(=C/c1nc(C)n2ccccc12)CCC3

absorption maximum (in C1CCCCC1): 397.61 nm
Compound: Nc1ccc2cc3ccccc3cc2c1

absorption maximum (in ClC(Cl)Cl): 485 nm
Compound: N#Cc1nc(N(Cc2ccc(Cl)cc2)Cc2ccc(Cl)cc2)c(C#N)nc1N(Cc1ccc(Cl)cc1)Cc1ccc(Cl)cc1

absorption maximum (in C1CCCCC1): 291 nm
absorption maximum (in CC#N): 289 nm
absorption maximum (in CO): 289 nm
Compound: CCOC(=O)CCOc1ccc(C(c2c(C)[nH]c3ccccc23)c2c(C)[nH]c3ccccc23)cc1OC

Compound: CCCCCCCCCCCCCCCC[n+]1ccc(/C=C/c2ccccc2O)cc1
absorption maximum (in C1COCCO1): 558.2 nm
absorption maximum (in CC(C)=O): 547 nm
absorption maximum (in CC(C)O): 520.4 nm
absorption maximum (in CCCCCC): 530.1 nm
absorption maximum (in CCCCO): 523.4 nm
absorption maximum (in CCCO): 518.9 nm
absorption maximum (in CCO): 518.9 nm
absorption maximum (in CN(C)C=O): 549.1 nm
absorption maximum (in CO): 503.8 nm
absorption maximum (in CS(C)=O): 523.4 nm
absorption maximum (in Cc1ccccc1): 554.2 nm
absorption maximum (in ClC(Cl)(Cl)Cl): 548.4 nm
absorption maximum (in ClC(Cl)Cl): 554.2 nm
absorption maximum (in ClCCl): 553.8 nm
absorption maximum (in c1ccccc1): 553.7 nm

absorption maximum (in ClCCl): 574 nm
Compound: CC1=C(c2ccc(N(C)C)cc2)C(C)=[N+]2C1=C(c1c(-c3ccccn3)nc3ccccn13)c1c(C)c(-c3ccc(N(C)C)cc3)c(C)n1[B-]2(F)F

absorption maximum (in CN(C)C=O): 383 nm
Compound: CCN(CC)c1ccc(-c2nc(Oc3ccc(-c4nc5cc([N+](=O)[O-])ccc5[nH]4)cc3)nc(Oc3ccc(-c4nc5cc([N+](=O)[O-])ccc5[nH]4)cc3)n2)cc1

Compound: COc1ccc(/C=C/C2=CC(/C=C/c3ccc(OC)cc3)=[O+][B-](OC(C)=O)(OC(C)=O)O2)cc1
absorption maximum (in C1CCOC1): 456 nm
absorption maximum (in CC#N): 462 nm
absorption maximum (in CC(C)=O): 458 nm
absorption maximum (in CS(C)=O): 468 nm
absorption maximum (in Cc1ccccc1): 456 nm
absorption maximum (in ClC(Cl)Cl): 464 nm
absorption maximum (in ClCCl): 464 nm

absorption maximum (in CCO): 391 nm
absorption maximum (in ClCCl): 394 nm
Compound: c1cnc(-c2c3ccccc3c(-c3cncnc3)c3ccccc23)nc1

absorption maximum (in CO): 534 nm
Compound: CCOC(=O)CCCCCn1c2ccc(Cl)cc2c(=O)c2cc3c(cc21)c(=O)c1cc(Cl)ccc1n3CCCCCC(=O)OCC

absorption maximum (in ClCCl): 376 nm
Compound: C[Si]1(C)O[Si](C)(C)c2cc3nc4ccc([N+](=O)[O-])cc4c(-c4ccccc4)c3cc2[Si](C)(C)O1

absorption maximum (in ClCCl): 378 nm
Compound: CN(/N=C1\N=C(N)C2(CCCC2)c2ccccc21)c1ccccc1

absorption maximum (in CCO): 358 nm
Compound: CCOC(=O)/C=C/c1cc2ccc(-c3cn(Cc4ccccc4)nn3)cc2oc1=O

absorption maximum (in C1CCOC1): 344 nm
Compound: N#Cc1c(N2CCCCC2)cc(-c2cccc3ccccc23)c2c1C(=O)c1ccccc1-2

absorption maximum (in CC#N): 383 nm
Compound: Cc1ccc(-c2ccc(/C=C/c3ccc(N(C)C)cc3)cn2)nc1

absorption maximum (in ClCCl): 523 nm
Compound: CCc1cccc(CC)c1-c1c2ccccc2c(C#Cc2ccccc2)c2cc3ccccc3cc12

absorption maximum (in ClC(Cl)Cl): 315 nm
Compound: COc1ccc(-n2c3c4ccccc4nc(-c4ccc(C#N)cc4)c3c3c2c2c(-c4ccc(C#N)cc4)nc4ccccc4c2n3-c2ccc(OC)cc2)cc1

Compound: CCOC(=O)COc1ccc(/C=C/c2c(CC)c(C)c3n2[B-](F)(F)[N+]2=C(c4[nH]c(C)c(CC)c4C)c4ccccc4C2=C3C)cc1
absorption maximum (in C1CCOC1): 675 nm
absorption maximum (in CC#N): 664 nm
absorption maximum (in CCCCCC): 677 nm
absorption maximum (in CO): 666 nm
absorption maximum (in Cc1ccccc1): 682 nm
absorption maximum (in ClCCl): 675 nm

absorption maximum (in ClCCl): 355 nm
Compound: c1ccc(-n2c3ccccc3c3cc(-c4cccc(-n5c6ccccc6c6c7sc8ccccc8c7ccc65)c4)ccc32)cc1

absorption maximum (in CCO): 425 nm
Compound: CCCCOc1c(C=C2N(C)c3ccccc3C2(C)C)c(=O)c1=O

absorption maximum (in ClCCl): 549 nm
Compound: CCCCCCn1c(=O)c2c3[nH]c4cc5sc6c([nH]c5cc4sc3c3c(=O)n(CCCCCC)c(=O)c3c2c1=O)c1c(=O)n(CCCCCC)c(=O)c1c1c(=O)n(CCCCCC)c(=O)c61

Compound: Cn1nc(-c2ccccc2)c2n[nH]nc2/c1=N\c1ccccn1
absorption maximum (in CC#N): 402 nm
absorption maximum (in CCO): 382 nm
absorption maximum (in Cc1ccccc1): 410 nm

absorption maximum (in ClC(Cl)Cl): 411 nm
Compound: Cc1ccc(C2CC(=O)Oc3c2c2nc4ccc(C)cc4nc2c2ccccc32)cc1 (stereo not given)

absorption maximum (in CC#N): 359 nm
absorption maximum (in ClCCl): 360 nm
Compound: Cc1cc(O)c(C(=O)/C=C/c2ccccc2O)c(=O)o1

Compound: CCCCN1C(=O)c2cccc3c(N(C)C)ccc(c23)C1=O
absorption maximum (in CC#N): 416 nm
absorption maximum (in CS(C)=O): 428 nm
absorption maximum (in Cc1ccccc1): 403 nm

absorption maximum (in ClCCl): 368 nm
Compound: CCCCC(CC)COc1ccc2nc(-c3ccc(-c4ccccc4)s3)sc2c1 (stereo not given)

absorption maximum (in ClC(Cl)Cl): 423 nm
Compound: CCCCN1c2ccccc2Sc2cc(/C=C\c3cc(=O)oc4ccc(C)cc34)ccc21

absorption maximum (in CO): 448 nm
Compound: O=C1C=C(Nc2ccc(F)cc2[N+](=O)[O-])C(=O)c2ccccc21

absorption maximum (in ClCCl): 330 nm
Compound: COc1ccc(-c2cnc(-c3cccnc3)o2)cc1OC

absorption maximum (in CCO): 393 nm
Compound: CCN(CC)c1cc2sc3cc(N(CC)CC)c(F)cc3c(=O)c2cc1F

Compound: COc1cc2c(cc1C=C(C#N)C#N)c1ccccc1n2C
absorption maximum (in C1CCOC1): 423 nm
absorption maximum (in CC#N): 422 nm
absorption maximum (in CCOC(C)=O): 420 nm
absorption maximum (in CN(C)C=O): 428 nm
absorption maximum (in CO): 425 nm
absorption maximum (in CS(C)=O): 427 nm
absorption maximum (in Cc1ccccc1): 425 nm
absorption maximum (in ClC(Cl)Cl): 430 nm
absorption maximum (in ClCCl): 427 nm

Compound: CC1=C(Cc2ccccc2)C(C)=[N+]2C1=C(C)c1c(C)c(-c3csc(N4CCOCC4)n3)c(C)n1[B-]2(F)F
absorption maximum (in C1CCOC1): 525 nm
absorption maximum (in C1COCCO1): 524 nm
absorption maximum (in CC#N): 517 nm
absorption maximum (in CC(C)O): 518 nm
absorption maximum (in CCO): 516 nm
absorption maximum (in CCOC(C)=O): 523 nm
absorption maximum (in CN(C)C=O): 526 nm
absorption maximum (in CO): 514 nm
absorption maximum (in CS(C)=O): 522 nm
absorption maximum (in Cc1ccccc1): 527 nm
absorption maximum (in ClC(Cl)Cl): 523 nm
absorption maximum (in ClCCl): 522 nm

absorption maximum (in ClCCl): 360 nm
Compound: N#Cc1ccc(/C=C/c2ncc(-c3ccccc3)o2)cc1

absorption maximum (in ClCCl): 568 nm
Compound: F[B-]1(F)n2c(c(-c3ccccc3)c3ccccc32)C(c2ccccc2)=C2C(c3ccccc3)=c3ccccc3=[N+]21

absorption maximum (in C1CCOC1): 330 nm
Compound: c1ccc(C2=C(c3ccccc3)[Si](c3ccccc3)(c3ccccc3)c3ccccc32)cc1

absorption maximum (in CCO): 590 nm
absorption maximum (in O): 590 nm
Compound: CC/[NH+]=c1\cc2oc3cc(NCCO)c4ccccc4c3nc-2cc1C

absorption maximum (in CC#N): 390 nm
absorption maximum (in CO): 400 nm
absorption maximum (in ClCCl): 396 nm
Compound: O=C1c2ccccc2-c2c(-c3cc(Br)ccc3O)[nH]c(=O)n21

absorption maximum (in CC#N): 428 nm
absorption maximum (in ClCCl): 434 nm
Compound: COC(=O)c1cc(=O)n(C)c2cc(-c3ccc(N(C)C)cc3)sc12

Compound: CN(C)c1ccc(-c2ccc(-c3cc(N4CCCCC4)c(C#N)c4c3-c3ccccc3CC4)cc2)cc1
absorption maximum (in C1CCCCC1): 353 nm
absorption maximum (in C1CCOC1): 342 nm
absorption maximum (in CN(C)C=O): 350 nm
absorption maximum (in CS(C)=O): 342 nm
absorption maximum (in Cc1ccccc1): 360 nm
absorption maximum (in ClC(Cl)Cl): 348 nm

absorption maximum (in C1COCCO1): 334 nm
absorption maximum (in CC#N): 326 nm
absorption maximum (in CO): 327 nm
absorption maximum (in ClCCl): 324 nm
Compound: CN(C)c1nc(N)nc2c1nc(C#N)n2Cc1ccccc1

absorption maximum (in CC#N): 396 nm
Compound: Oc1ccccc1/C=N/CC/N=C/c1ccccc1O
